According to ChEMBL document CHEMBL1201862, “PubChem BioAssay data set” (2004):
Calls of active or inactive are those of the source.

Experiments:
Orexin receptor type 2 [1] = molecular target: T1, Orexin receptor type 2 (Homo sapiens, UniProt O43614); experiment: Counterscreen assay for antagonists of the orexin 1 receptor (OX1R; HCRTR1): Fluorescence-based cell-based dose response assay for antagonists of the orexin 2 receptor (OX2R; HCRTR2), run by assay provider.; type: functional
T1 sequence (O43614 whole entry): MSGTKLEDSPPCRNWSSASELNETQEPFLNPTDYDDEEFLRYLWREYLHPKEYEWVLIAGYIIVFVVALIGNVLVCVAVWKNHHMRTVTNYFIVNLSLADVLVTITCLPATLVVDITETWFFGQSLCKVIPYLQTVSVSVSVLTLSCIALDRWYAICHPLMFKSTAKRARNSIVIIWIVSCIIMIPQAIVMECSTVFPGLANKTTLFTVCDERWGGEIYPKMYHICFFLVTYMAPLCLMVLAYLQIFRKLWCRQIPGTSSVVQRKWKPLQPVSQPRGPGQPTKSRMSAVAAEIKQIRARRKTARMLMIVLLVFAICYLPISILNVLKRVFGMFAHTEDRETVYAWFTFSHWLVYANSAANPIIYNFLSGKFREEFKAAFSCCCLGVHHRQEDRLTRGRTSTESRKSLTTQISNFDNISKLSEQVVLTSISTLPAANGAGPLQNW

[2] = molecular target: T2, Orexin/Hypocretin receptor type 1 (Homo sapiens, UniProt O43613); experiment: Homogeneous Time Resolved Fluorescence (HTRF)-based cell-based high throughput dose response assay for antagonists of the orexin 1 receptor (OX1R; HCRTR1). [Related pubchem assays (depositor defined):AID434989, AID435008, AID463079, AID485270, AID492963, AID492964, AID492965, AID493232, AID504717, AID504718]; type: functional
T2 sequence (O43613 whole entry): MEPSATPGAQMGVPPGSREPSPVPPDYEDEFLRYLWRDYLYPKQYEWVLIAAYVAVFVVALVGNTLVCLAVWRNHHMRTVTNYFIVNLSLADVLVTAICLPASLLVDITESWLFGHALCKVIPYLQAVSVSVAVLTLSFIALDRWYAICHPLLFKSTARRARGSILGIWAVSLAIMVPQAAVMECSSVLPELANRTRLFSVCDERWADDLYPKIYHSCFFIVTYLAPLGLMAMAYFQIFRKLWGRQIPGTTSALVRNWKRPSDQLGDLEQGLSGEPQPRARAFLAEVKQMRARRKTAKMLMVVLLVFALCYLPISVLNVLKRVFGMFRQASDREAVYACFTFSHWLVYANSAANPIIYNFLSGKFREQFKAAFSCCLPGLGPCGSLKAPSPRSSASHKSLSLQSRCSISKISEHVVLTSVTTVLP

[3] = molecular target: T2, Orexin/Hypocretin receptor type 1; experiment: Fluorescence-based cell-based high throughput dose response assay for antagonists of the orexin 1 receptor (OX1R; HCRTR1). [Related pubchem assays (depositor defined):AID434989, AID435008, AID463079, AID485270, AID492963, AID492964, AID492965, AID493232, AID504717, AID504718]; type: functional
[4] = (§1) Counterscreen for antagonists of the orexin 1 receptor (OX1R; HCRTR1): Fluorescence-based cell-based high throughput dose response assay to identify antagonists of the parental CHO cell line. [Related pubchem assays (depositor defined):AID434989, AID435008, AID463079, AID485270, AID492963, AID492964, AID492965, AID493232, AID504699, AID504701]; type: functional
CHO-K1 = experiment: as §1, with “Homogeneous time resolved fluorescence (HTRF)-based” for “Fluorescence-based”, “cell-based” for “cell-based high throughput”, “CHO-K1” for “CHO”; type: functional; conditions: Cricetulus griseus;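 note: potency for inhibition of ATP-stimulated IP1 production as antagonists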
Orexin receptor type 2 [5] = molecular target: T1, Orexin receptor type 2; experiment: Counterscreen assay for antagonists of the orexin 1 receptor (OX1R; HCRTR1): Homogeneous Time Resolved Fluorescence (HTRF)-based cell-based dose response assay for antagonists of the orexin 2 receptor (OX2R; HCRTR2), run by assay provider.; type: functional
Beta Lactamase = Beta Lactamase (Pseudomonas aeruginosa, UniProt Q932Y6); experiment: BLA reporter interference, concentration series – BLA reporter cells, FRET fluorescence, artefact control for NOD2-RIPK2 interaction inhibitor project, dose response (AID 651552); type: functional, cell-based
Beta Lactamase, sequence (Q932Y6 whole entry): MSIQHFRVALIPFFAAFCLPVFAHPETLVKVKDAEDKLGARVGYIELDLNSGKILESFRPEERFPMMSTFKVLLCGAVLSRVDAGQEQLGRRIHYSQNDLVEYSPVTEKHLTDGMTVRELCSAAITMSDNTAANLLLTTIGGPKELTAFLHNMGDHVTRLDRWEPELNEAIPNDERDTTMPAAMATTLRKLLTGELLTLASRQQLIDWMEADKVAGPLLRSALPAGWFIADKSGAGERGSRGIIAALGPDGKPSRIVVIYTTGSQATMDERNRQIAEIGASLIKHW

[6] = THP-1 cell cytotoxicity, dose response, cytotoxicity control for non-replicating M. tuberculosis project (AID 489025); type: functional
[7] = molecular target: T3, High affinity choline transporter 1 (Homo sapiens, UniProt Q9GZV3); experiment: human choline transporter potentiators, potency – cell-based, 10-point CRC, membrane potential dye, dose response (AID 602376); type: functional
T3 sequence (Q9GZV3 whole entry): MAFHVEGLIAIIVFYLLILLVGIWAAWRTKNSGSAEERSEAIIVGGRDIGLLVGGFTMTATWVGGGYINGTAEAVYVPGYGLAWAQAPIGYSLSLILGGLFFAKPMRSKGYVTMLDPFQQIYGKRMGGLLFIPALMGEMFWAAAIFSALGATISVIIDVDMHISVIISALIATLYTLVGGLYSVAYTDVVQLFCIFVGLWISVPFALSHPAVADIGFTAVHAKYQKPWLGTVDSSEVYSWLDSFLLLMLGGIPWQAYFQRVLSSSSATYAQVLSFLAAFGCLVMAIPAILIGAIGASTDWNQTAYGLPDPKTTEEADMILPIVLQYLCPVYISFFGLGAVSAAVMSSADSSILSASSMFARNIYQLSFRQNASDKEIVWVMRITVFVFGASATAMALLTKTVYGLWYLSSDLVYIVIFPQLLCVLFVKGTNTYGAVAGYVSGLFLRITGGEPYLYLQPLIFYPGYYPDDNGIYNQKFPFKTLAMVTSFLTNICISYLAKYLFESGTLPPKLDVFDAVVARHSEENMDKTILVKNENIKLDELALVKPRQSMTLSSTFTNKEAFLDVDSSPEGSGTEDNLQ

BJ [8] = experiment: cells; type: functional, cell-based; conditions: Homo sapiens
[9] = HepG2 cell cytotoxicity, dose response, cytotoxicity control for non-replicating M. tuberculosis project (AID 489018); type: functional; conditions: Mycobacterium tuberculosis
[10] = Vero E6 cell cytotoxicity, dose response, cytotoxicity control for non-replicating M. tuberculosis project, secondary assay (AID 492998); type: functional, VeroE6; conditions: Vero C1008
BJ [11] = experiment: growth inhibition of engineered Ras-driven BJ cells – cell-based, alamar blue fluorescence, cherrypicked samples, dose response (AID 2631); type: functional; conditions: Homo sapiens;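 note: confirmatory dose-response assay in RAS-dependent BJ fibroblasts engineered with TERT, LT and ST, with cytotoxicity read by fluorescence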
cells = type: functional
[12] = molecular target: T4, Ubiquitin-conjugating enzyme E2 N (Homo sapiens, UniProt P61088); type: functional;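 note: Dose-response confirmation in a TR-FRET assay detecting UBC13-driven polyubiquitin chain formation, inhibition measured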
T4 sequence (P61088 whole entry): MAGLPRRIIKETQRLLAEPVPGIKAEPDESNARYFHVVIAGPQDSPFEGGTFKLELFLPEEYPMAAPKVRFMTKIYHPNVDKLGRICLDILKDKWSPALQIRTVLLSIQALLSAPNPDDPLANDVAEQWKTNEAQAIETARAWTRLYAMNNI

[13] = decrease of insulin promoter-GFP reporter – imaging, high-content screening, mouse beta cells (AID 1628); type: functional; conditions: MIN6
BJ [14] = experiment: BJ-TERT-LT-ST fibroblast viability loss – cell-based, RAS-independent, luminescence, dose response (AID 1935); type: functional; conditions: Homo sapiens;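 note: BJ fibroblasts immortalized with TERT plus LT and ST oncogenes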
[15] = Fluorescence-based cell-based high throughput dose response assay for inhibitors of the interaction of nucleotide-binding oligomerization domain containing 2 (NOD2) and the receptor-interacting serine-threonine kinase 2 (RIPK2).; type: functional; conditions: Homo sapiens
BJ [16] = experiment: BJ-TERT fibroblast viability loss – cell-based, RAS-independent, luminescence, dose response (AID 1933); type: functional; conditions: Homo sapiens
[17] = DRD fibroblast viability loss – cell-based, non-viral oncogenic, luminescence, dose response (AID 1934); type: functional; conditions: Homo sapiens
[18] = MIN6 cell viability loss – mouse insulinoma, cytotoxicity control, dose response (AID 2122); type: functional;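 note: confirmatory high-throughput counterscreen run to flag cytotoxic compounds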
[19] = molecular target: T5, Short transient receptor potential channel 4 (Mus musculus, UniProt Q9QUQ5); experiment: block of DAMGO-driven TRPC4 calcium entry – cell-based, HEK293 TRPC4/mu-opioid, Fluo-4 calcium, dose response (AID 434942); type: functional;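 note: potency of inhibitors blocking the TRPC4 calcium response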
T5 sequence (Q9QUQ5 whole entry): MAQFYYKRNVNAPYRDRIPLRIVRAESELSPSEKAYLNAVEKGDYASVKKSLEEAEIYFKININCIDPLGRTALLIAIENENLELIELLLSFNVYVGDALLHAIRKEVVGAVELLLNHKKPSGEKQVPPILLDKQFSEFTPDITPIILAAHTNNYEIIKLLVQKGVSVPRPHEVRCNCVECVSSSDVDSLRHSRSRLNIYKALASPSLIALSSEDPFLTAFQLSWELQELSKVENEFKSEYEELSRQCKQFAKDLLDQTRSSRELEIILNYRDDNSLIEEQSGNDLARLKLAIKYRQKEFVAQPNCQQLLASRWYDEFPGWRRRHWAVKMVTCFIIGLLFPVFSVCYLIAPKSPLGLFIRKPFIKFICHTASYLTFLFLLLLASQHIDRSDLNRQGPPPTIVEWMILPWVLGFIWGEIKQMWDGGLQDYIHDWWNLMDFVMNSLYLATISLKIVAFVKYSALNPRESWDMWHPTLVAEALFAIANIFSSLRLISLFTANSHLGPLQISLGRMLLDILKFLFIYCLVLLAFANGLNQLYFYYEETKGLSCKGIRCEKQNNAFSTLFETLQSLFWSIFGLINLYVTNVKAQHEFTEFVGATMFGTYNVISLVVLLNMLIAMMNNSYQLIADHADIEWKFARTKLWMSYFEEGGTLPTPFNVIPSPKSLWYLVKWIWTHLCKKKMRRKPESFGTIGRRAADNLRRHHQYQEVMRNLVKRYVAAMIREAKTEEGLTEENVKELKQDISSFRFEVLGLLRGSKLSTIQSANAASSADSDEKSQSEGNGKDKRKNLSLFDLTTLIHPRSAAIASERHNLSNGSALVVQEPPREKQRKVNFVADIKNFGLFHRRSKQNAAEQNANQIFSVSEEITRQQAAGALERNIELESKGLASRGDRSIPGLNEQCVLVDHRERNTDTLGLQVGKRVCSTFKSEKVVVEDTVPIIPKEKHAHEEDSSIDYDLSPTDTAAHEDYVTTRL

[20] = molecular target: 26S proteasome non-ATPase regulatory subunit 14 (Homo sapiens, UniProt O00487); experiment: inhibition of proteasome subunit RPN11 – biochemical, fluorescence polarization, uHTS hits, confirmation (AID 602368); type: functional
26S proteasome non-ATPase regulatory subunit 14, sequence (O00487 whole entry): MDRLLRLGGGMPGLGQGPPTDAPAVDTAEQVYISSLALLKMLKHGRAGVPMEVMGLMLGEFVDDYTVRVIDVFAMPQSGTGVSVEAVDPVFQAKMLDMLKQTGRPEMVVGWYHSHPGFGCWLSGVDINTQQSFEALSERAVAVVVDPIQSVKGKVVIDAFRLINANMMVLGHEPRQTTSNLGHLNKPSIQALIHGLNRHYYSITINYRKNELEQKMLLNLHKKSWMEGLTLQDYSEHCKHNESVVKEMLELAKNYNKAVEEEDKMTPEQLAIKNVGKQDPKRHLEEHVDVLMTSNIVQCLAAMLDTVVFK

[21] = molecular target: 72 kDa type IV collagenase (Homo sapiens, UniProt P08253); experiment: Dose Response validation of uHTS RPN11 inhibitor hits using a MMP-2 Fluorescence assay.; type: functional
72 kDa type IV collagenase, sequence (P08253 whole entry): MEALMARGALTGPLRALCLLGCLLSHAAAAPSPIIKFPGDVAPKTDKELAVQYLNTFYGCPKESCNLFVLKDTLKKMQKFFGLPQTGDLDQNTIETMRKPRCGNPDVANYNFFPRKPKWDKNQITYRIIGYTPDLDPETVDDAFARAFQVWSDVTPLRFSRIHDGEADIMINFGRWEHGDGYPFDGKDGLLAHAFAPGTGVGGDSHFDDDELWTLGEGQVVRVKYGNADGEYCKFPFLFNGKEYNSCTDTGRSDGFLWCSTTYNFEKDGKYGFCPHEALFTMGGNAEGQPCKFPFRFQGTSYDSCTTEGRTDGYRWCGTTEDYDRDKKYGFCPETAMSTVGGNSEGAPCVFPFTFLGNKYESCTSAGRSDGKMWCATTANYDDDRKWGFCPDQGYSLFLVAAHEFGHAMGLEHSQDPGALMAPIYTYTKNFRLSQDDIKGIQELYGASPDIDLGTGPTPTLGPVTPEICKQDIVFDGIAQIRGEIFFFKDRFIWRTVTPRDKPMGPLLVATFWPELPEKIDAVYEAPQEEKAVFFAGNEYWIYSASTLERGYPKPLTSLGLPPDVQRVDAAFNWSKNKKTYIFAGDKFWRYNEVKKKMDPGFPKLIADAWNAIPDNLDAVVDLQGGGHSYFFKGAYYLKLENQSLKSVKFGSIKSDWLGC

Prothrombin = Prothrombin (Bos taurus, UniProt P00735); experiment: thrombin protease inhibitors – biochemical, fluorescence polarization, uHTS hits, dose response (AID 602369); type: functional

COc1ccc2c(Cl)c(C(=O)N/N=C/c3c(C)[nH]c4ccccc34)sc2c1
active: IC50 [2] 2.04 µM | IC50 [3] 6.57 µM
inactive: IC50 (Orexin receptor type 2 [1]) 23.2 µM | IC50 [4] > 49.8 µM | IC50 (CHO-K1) > 66.2 µM | IC50 (Orexin receptor type 2 [5]) > 50 µM

COc1ccc(-c2nc3ccccc3s2)cc1O
inactive: IC50 (Orexin receptor type 2 [1]) 56 µM | IC50 [4] > 49.8 µM | IC50 (CHO-K1) > 66.2 µM
active: IC50 [2] 3.25 µM | IC50 [3] 9.38 µM | IC50 (Orexin receptor type 2 [5]) 9.41 µM

CCCCCOc1ccc(Br)cc1/C(C)=N/NC1=NCCN1
inactive: IC50 (Beta Lactamase) 49.8 µM | IC50 [12] > 20 µM | IC50 [15] 39.9 µM
active: CC50 [6] 2.09 µM | EC50 [7] 14.8 µM | EC50 (BJ [8]) 8.5 µM | CC50 [9] 11.3 µM | CC50 [10] 5.08 µM | EC50 (BJ [11]) 0.647 µM | IC50 (cells) 21.4 µM | IC50 [13] 1.6 µM | EC50 (BJ [16]) 2.99 µM | EC50 [17] 5.8 µM | IC50 [18] 1.26 µM
inconclusive: EC50 (BJ [14]) 4.48 µM

COc1ccc(C(CCNCc2ccc(OC)c(OC)c2)c2ccc(F)cc2)cc1 (configuration not stated)
active: EC50 [7] 20.9 µM

CC[n+]1c(/C=C/Nc2ccccc2)oc2ccc(OC)cc21
inactive: IC50 [21] > 100 µM
active: EC50 [19] 3.35 µM | IC50 [20] 23.2 µM | IC50 (Prothrombin) 55.6 µM
